Test results from patent US20120214798A1, “Novel Ethanediamone Hepcidine Antagonists” (VIFOR (INTERNATIONAL) AG, priority 2009, published 2012).

biological target: T1, human ferroportin (Homo sapiens, UniProt Q9NP59); test: Ferroportin internalization assay (inhibition of hepcidin-induced internalization of Fpn, MDCK-FPN-HaloTag cells); format: cell-based; details: 100 nM hepcidin
T1 construct: expressed in transfected cells
T1 sequence (Q9NP59 1-571): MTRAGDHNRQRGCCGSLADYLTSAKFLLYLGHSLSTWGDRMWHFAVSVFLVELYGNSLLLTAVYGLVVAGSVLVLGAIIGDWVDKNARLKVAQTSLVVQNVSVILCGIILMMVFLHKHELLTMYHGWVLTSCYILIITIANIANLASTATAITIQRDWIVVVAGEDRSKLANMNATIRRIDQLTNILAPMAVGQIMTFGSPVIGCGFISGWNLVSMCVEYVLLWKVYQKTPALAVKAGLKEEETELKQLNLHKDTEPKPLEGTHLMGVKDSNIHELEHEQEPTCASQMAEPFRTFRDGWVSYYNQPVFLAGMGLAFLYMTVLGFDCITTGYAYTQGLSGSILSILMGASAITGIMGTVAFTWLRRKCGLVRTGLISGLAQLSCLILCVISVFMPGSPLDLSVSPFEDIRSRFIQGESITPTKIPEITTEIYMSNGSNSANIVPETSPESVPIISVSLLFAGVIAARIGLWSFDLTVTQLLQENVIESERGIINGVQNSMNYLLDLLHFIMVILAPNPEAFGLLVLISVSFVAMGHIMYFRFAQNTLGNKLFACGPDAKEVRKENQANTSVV
Protocol: The hepcidin-antagonistic action of the ethanediamine compounds of the present invention was determined by means of the “ferroportin internalization assay” described in the following.
Organic compounds of low molecular weight which counteract the biological actions of hepcidin on its receptor, the iron exporter ferroportin (Fpn), were identified on the basis of their ability to inhibit hepcidin-induced internalization of Fpn in living cells. For this purpose, a stable cell line (Madin-Darby canine kidney, MDCK) was produced which constitutively expresses human ferroportin fused recombinantly at its C terminus with a fluorescent reporter protein (HaloTag®, Promega Corp.). The internalization of Fpn was monitored by labelling these cells with fluorescent ligands (HaloTag®-TMR, tetramethylrhodamine) which join covalently on to the HaloTag reporter gene fused with the Fpn. […] Optimized image analysis algorithms were used to ascertain the cell surface and to quantify the corresponding membrane fluorescence associated with the Fpn-HaloTag fusion protein. This assay allows a quantitative image-based analysis in order to quickly evaluate compounds which can block hepcidin-induced internalization of Fpn. This assay is a direct in vitro pendant of the in vivo action mechanism proposed for medicament candidates and is therefore suitable as an initial assay with a high throughput for identifying compounds which counteract the action of hepcidin on its receptor ferroportin.
• 7,500 cells per well (MDCK-FPN-HaloTag) were transinoculated in 50 μl of DMEM medium (Dulbeccos Modified Eagle Medium with 10% foetal bovine serum (FBS), which contained 1% penicillin, 1% streptomycin and 450 μg/ml of G-418) in microtitre plates with 384 wells (384 Cell carrier plates, Perkin Elmer, cat. no. 6007430), followed by incubation overnight at 37° C./5% CO2. • The volume of the medium was reduced to 10 μl, and 10 μl of 5 μM HaloTag-TMR ligands (Promega, cat. no. G 8251) were added in DMEM medium in order to stain the Fpn-HaloTag fusion protein. • 15 min incubation at 37° C./5% CO2 • The HaloTag-TMR ligand was removed and the cells were washed with fresh DMEM medium and the volume was reduced to 20 μl of DMEM medium. • 3 μl per well of a solution of the test compound (dissolved DMSO) were added ([…]). • 7 μl of […] hepcidin (Peptides International, cat. no. PLP-4392-s, 100 μM stock solution diluted in water in DMEM medium) were added per well up to a final hepcidin concentration of 100 nM. • The cells were incubated overnight at 37° C./5% CO2. • The cells were fixed by adding paraformaldehyde (PFA, Electron Microscopy Sciences, cat. no. 15710-S) directly to the cells up to a final concentration of 4%, followed by incubation at room temperature for 15-20 minutes. • The PFA solution was removed and the cells were washed with PBS (phosphate-buffered saline solution), in each case 30 μl remaining in the plate. • 20 μl of Draq5 (Biostatus, cat. no. DR 51000) were added up to a final concentration of 2.5 μM in order to stain the cell nuclei, and the plates were sealed with a foil plate seal. • The plates were analysed with the Opera Plate Imager (Opera Confocal Plate Imager, Perkin Elmer) with 7 images per well; 440 ms exposure time per image, […] focal point height.

| I [%] (median inhibition [%] at 10 μm substance conc.) | SMILES |
| --- | --- |
| >50 | Fc1ccc(C(CN2CCN(c3cnccn3)CC2)NCc2ccccn2)cc1 (stereo not drawn) [Example 1, [1-(4-Fluoro-phenyl)-2-(2,3,5,6-tetrahydro-[1,2′]bipyrazinyl-4-yl)-ethyl]-pyridin-2-ylmethyl-amine] |
| <50 | O=C(C1CCCO1)N1CCN(CC(NCc2ccccn2)c2ccc(F)cc2)CC1 (stereo not drawn) [Example 2, (4-{2-(4-Fluoro-phenyl)-2-[(pyridin-2-ylmethyl)-amino]-ethyl}-piperazin-1-yl)-(tetrahydro-furan-2-yl)-methanone] |
| <50 | O=C(C1CCCO1)N1CCN(CC(NCc2ccccn2)c2ccccc2)CC1 (stereo not drawn) [Example 3, (4-{2-Phenyl-2-[(pyridin-2-ylmethyl)-amino]-ethyl}-piperazin-1-yl)-(tetrahydro-furan-2-yl)-methanone] |
| >50 | COCCN1CCN(C(CN2CCC(N3CCCCC3)CC2)c2ccccc2)CC1 (stereo not drawn) [Example 4] |
| <50 | c1ccc(C(CN2CCC(N3CCCCC3)CC2)NCCN2CCOCC2)cc1 (stereo not drawn) [Example 5] |
| <50 | COc1ccc(CNC(CN2CCC(N3CCCCC3)CC2)c2ccccc2)cc1 (stereo not drawn) [Example 6] |
